Laboratory results from the NIST ThermoML archive (doi:10.1021/je200868y).
± gives the expanded uncertainty stated by the source.

Conditions: Liquid; for mass density: 298.15 K, 101.33 kPa, Vibrating tube method

For CCO [ethanol], the mass density was 785.18 ± 0.15 kg/m3, the “vapor or sublimation pressure” value (329.69 K) was 40 ± 1.5 kPa and the “vapor or sublimation pressure” value (336.07 K) was 53.33 ± 2 kPa. For the same molecule, the “vapor or sublimation pressure” value (341.23 K) was 66.66 ± 2.4 kPa, the “vapor or sublimation pressure” value (345.6 K) was 79.99 ± 2.8 kPa and the “vapor or sublimation pressure” value (349.39 K) was 93.32 ± 3.2 kPa. The “vapor or sublimation pressure” value (351.44 K) was 101.3 ± 3.4 kPa.

For Cc1ccc(C)cc1 [1,4-dimethylbenzene], the mass density was 856.68 ± 0.12 kg/m3, the “vapor or sublimation pressure” value (379.81 K) was 40 ± 1.5 kPa and the “vapor or sublimation pressure” value (388.96 K) was 53.33 ± 2 kPa. The “vapor or sublimation pressure” value (396.45 K) was 66.66 ± 2.4 kPa, the “vapor or sublimation pressure” value (402.82 K) was 79.99 ± 2.8 kPa and the “vapor or sublimation pressure” value (408.4 K) was 93.32 ± 3.2 kPa. The “vapor or sublimation pressure” value (411.48 K) was 101.3 ± 3.4 kPa.

With CCCCCC(=O)OCC [ethyl hexanoate] the mass density was 865.59 ± 0.11 kg/m3, the “vapor or sublimation pressure” value (408.31 K) was 40 ± 1.5 kPa and the “vapor or sublimation pressure” value (417.74 K) was 53.33 ± 2 kPa. For the same molecule, the “vapor or sublimation pressure” value (425.39 K) was 66.66 ± 2.4 kPa, the “vapor or sublimation pressure” value (431.86 K) was 79.99 ± 2.8 kPa and the “vapor or sublimation pressure” value (437.53 K) was 93.32 ± 3.2 kPa. The “vapor or sublimation pressure” value (440.57 K) was 101.3 ± 3.4 kPa.
